Activity calls are given as the source filed them. Cut-off read from the data, not from the text of the source: actives have a measured EC50 and inactives only a lower limit.
Columns and labels:
[1] = biological target: T1, Luciferin 4-monooxygenase (Photinus pyralis, UniProt P08659); experiment: Counter Screen for Luciferase-based Assay Positives. [Related pubchem assays: 620, 618, 411 ]
[2] = biological target: T1, Luciferin 4-monooxygenase; experiment: inhibition of purified Photinus pyralis luciferase – biochemical, luminescence, dose response (AID 1891)
[3] = Luminescence Cell-Based Dose Confirmation HTS to Identify Inhibitors of Platelet Dense Granule Release. [Related pubchem assays: 1663 (Primary HTS), 1678 (Summary of Project)]; format: functional
HT-1080 = experiment: HT1080 cell viability loss – fluorescence readout (AID 620); format: functional, cell-based; settings: Homo sapiens

T1 sequence (P08659 whole entry): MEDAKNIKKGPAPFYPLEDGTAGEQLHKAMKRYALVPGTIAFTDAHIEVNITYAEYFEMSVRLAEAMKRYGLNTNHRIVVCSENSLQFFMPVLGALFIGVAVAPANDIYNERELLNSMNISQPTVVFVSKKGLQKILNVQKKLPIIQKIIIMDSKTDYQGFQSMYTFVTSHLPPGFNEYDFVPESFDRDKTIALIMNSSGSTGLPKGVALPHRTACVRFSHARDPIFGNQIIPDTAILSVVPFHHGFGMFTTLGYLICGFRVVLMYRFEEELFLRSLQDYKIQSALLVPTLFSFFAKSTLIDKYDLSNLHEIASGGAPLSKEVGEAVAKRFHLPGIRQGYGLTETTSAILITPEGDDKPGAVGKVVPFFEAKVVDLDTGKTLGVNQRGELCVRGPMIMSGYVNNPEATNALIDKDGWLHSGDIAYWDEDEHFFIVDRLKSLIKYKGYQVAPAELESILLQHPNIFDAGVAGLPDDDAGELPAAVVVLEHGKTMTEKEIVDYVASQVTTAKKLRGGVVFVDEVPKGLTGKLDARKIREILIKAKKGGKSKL

| SMILES | EC50 [1] | EC50 [2] | EC50 [3] | EC50 (HT-1080) |
| --- | --- | --- | --- | --- |
| COC(=O)c1nn(-c2ccc(-c3ccccc3)cc2)cc1O | > 100 µM (not active) | 1.93 µM (active) | 3.79 µM (active) | > 50 µM (not active) |
| Cc1cc(C)c(OCC(=O)Nc2cccc(O)c2)cc1C | 3.52 µM (active) |  |  | > 50 µM (not active) |
